Assay [1] deals with A549. Briefly: Cell proliferation assay panel (Cell Titer-Glo), A549. The class given is cell-based. Conditions: Homo sapiens, 72 hr. How it is done:
(§1) Potency of compounds was determined in cell proliferation assays in a panel of cancer cell lines. Cells were seeded in 384-well plates (Corning, Cat. #3765) at specified densities in 40 μL of culture medium and incubated overnight at 37° C. in a 5% CO2 incubator (culture conditions). With a robotic dispenser, serially diluted test compounds were added in a volume of 20 nL DMSO to wells in the culture plate to achieve the final desired concentrations of test compounds, and the cells were further incubated in culture conditions for 72 hr. The assay was terminated by addition of 25 μL of Cell Titer-Glo reagent (Promega, Madison, Wis.) to each well. Contents were mixed, the plate was incubated for 10 min at room temperature and luminescence was measured. The IC50 value of each test compound was calculated with XLFit curve fitting software. Results are shown in Table 4. ‘+++’ indicates IC50 values ≤300 nM, ‘++’ indicates IC50 values between 300 nM-3 μM, and ‘+’ indicates IC50 values ≥3 μM.

Assay [2] deals with KYSE-410. Briefly: Cell proliferation assay panel (Cell Titer-Glo), KYSE-410. The class given is cell-based. Conditions: Homo sapiens, 72 hr. How it is done: as §1
Background: In ATP-based viability assays light output follows the ATP content of the culture.

Assay [3] concerns MIA PaCa-2. Briefly: Cell proliferation assay panel (Cell Titer-Glo), MIA PaCa-2. The class given is cell-based. To be noted: Homo sapiens, MIA PaCa-2, 72 h. How it is done: as §1
In assay [4] the test system is NCI-H2122. Briefly: Cell proliferation assay panel (Cell Titer-Glo), NCI-H2122. The class given is cell-based. Conditions: Homo sapiens, 72 hr. How it is done:
as §1

For assay [5], the system named is NCI-H358. Briefly: Cell proliferation assay panel (Cell Titer-Glo), NCI-H358. Format: cell-based. To be noted: Homo sapiens, 72 hr. How it is done:
as §1

Assay [6] deals with NCI-H1373. Briefly: Cell proliferation assay panel (Cell Titer-Glo), NCI-H1373. The class given is cell-based. To be noted: Homo sapiens, 72 hr. How it is done:
as §1

For assay [7], the system named is NCI-H2030. In words: Cell proliferation assay panel (Cell Titer-Glo), NCI-H2030. Conditions: Homo sapiens, 72 hr. Format: cell-based. As to the method: as §1
Assay [8] concerns SW1573. Briefly: Cell proliferation assay panel (Cell Titer-Glo), SW1573. The class given is cell-based. Conditions: Homo sapiens, 72 hr. As to the method:
as §1

For assay [9], the target named is T1, KRAS G12C protein (Homo sapiens, UniProt P01116, G12C). Briefly: Nucleotide exchange assay, Method I (BODIPY-GDP fluorescence, SOS1-mediated exchange of GDP for GTP). Format: biochemical. Conditions: 30 minutes incubation with KRAS G12C/BODIPY-GDP. As to the method:
Method I. A biochemical assay to assess activity of test compounds in inhibiting SOS1-mediated exchange of GDP for GTP on the KRAS G12C protein was performed at Reaction Biology Corporation (Malvern, Pa., USA). In this assay, exchange of BODIPY-GDP to GTP results in the decrease in BODIPY-GDP fluorescence. Briefly, recombinant KRAS G12C protein (aa 2-169, prepared by Reaction Biology) was labelled with 5× excess of BODIPY-GDP. Excess BODIPY-GDP was separated from loaded protein using a gravity desalting column. Compounds were incubated with 0.15 μM KRAS G12C/BODIPY-GDP for 30 minutes. A mixture of GTP (25 μM) and SOS1 (70 nM; aa 564-1049, prepared by Reaction Biology) was added to the reaction to initiate the nucleotide exchange reaction. Reaction progress was monitored in real time (Ex/Em=(483/530)) in CLARIOstar (BMG LabTech). After signal normalization, the data were fitted using the “one phase exponential decay” model in GraphPad Prism and rate constants obtained. Rate constants were converted to % activity values which were fit to a 4-parameter sigmoidal dose-response curve in Prism to derive IC50 values for inhibition of exchange activity by test compounds.
Target sequence in this assay (P01116 2-169 isoform P01116-2 G12C): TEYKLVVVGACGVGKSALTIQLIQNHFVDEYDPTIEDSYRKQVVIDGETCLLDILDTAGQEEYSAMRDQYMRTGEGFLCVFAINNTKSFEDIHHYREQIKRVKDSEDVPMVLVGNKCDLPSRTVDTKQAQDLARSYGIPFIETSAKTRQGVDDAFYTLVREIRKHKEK

Assay [10] addresses T1, KRAS G12C protein. Briefly: Nucleotide exchange assay, Method III (TR-FRET, association of KRAS G12C with Raf-RBD, SOS1-mediated exchange). The class given is biochemical. Conditions: overnight (18 hr) incubation with GDP-bound KRAS G12C. As to the method: Method III. Inhibition of SOS1-mediated exchange of GDP for GTP on the KRAS G12C protein was measured in a biochemical assay that monitors association of KRAS G12C protein with the Ras-binding domain of Raf (Raf-RBD), where the association is coupled to exchange of GDP to GTP on the KRAS G12C protein. The assay was performed at WuXi AppTec (Shanghai, China). Compounds were serially diluted in 3-fold dilutions to 11 concentrations and spotted into the wells of an assay plate in a total volume of 150 nL DMSO per well. A 2× enzyme mix was prepared by diluting GDP-bound, His-tagged KRAS G12C to 25 nM in assay buffer. 10 μL/well of 2× enzyme mix was added to all wells, and the plate was sealed and incubated overnight (18 hr) at 23° C. 4×SOS1/GDP and 4×SOS1/GTP were prepared in assay buffer. 5 μL/well of 4×SOS1/GDP mix was added to negative control wells, 5 μL/well of 4×SOS1/GTP mix was added to the remaining wells, and the plate was further incubated at 23° C. for 1 hr. Finally, FLAG-tagged Raf-RBD is added to the reaction mixture along with a pair of FRET donor- and acceptor-conjugated antibodies specific for the FLAG-tagged Raf-RBD and His-tagged KRAS G12C proteins. A 4× Raf-RBD/Tb-anti-FLAG/D2-anti-His mix was prepared in assay buffer, and 5 μL/well of the mix was added to all wells, followed by incubation at room temperature for 2 hr. The TR-FRET signals, which increase with association of KRAS G12C and Raf-RBD, were measured on a Perkin Elmer Envision 2104 plate reader, and data were analyzed by non-linear regression to obtain IC50 values for inhibition by compounds. Table 2 includes results of the assay of Method III. ‘+++’ indicates IC50 values ≤300 nM, ‘++’ indicates IC50 values between 300 nM-3 μM, and ‘+’ indicates IC50 values ≥3 μM.
For orientation: In TR-FRET formats the signal depends on donor and acceptor labels being close together.
Target sequence in this assay (P01116 1-188 isoform P01116-2 G12C): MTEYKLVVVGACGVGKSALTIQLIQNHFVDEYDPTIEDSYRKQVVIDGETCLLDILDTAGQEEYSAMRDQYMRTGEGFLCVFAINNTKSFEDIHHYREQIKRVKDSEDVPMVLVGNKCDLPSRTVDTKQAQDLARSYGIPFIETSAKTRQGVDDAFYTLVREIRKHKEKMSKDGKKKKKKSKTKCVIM

For assay [11], the system named is NCI-H358 cells. In words: 3D cell proliferation assay (Cell Titer-Glo 3D). The class given is cell-based. To be noted: Homo sapiens, NCI-H358, 168 h, NCI-H358, 3D (ultra-low attachment); 7 days. How it is done: NCI-H358 cells (ATCC® CRL-5807™) were plated in a 384-well Black/Clear Round Bottom Ultra-Low Attachment Microplate (Corning) in medium (RPMI-1640+10% FBS) at a density of 1000 cells in 50 μL per well, then incubated overnight at 37° C. and 5% CO2. Cells were treated with test compounds at 9 concentrations within a specified concentration range (e.g., 0.5 nM-10 μM) for generation of dose response curves. Test compounds were prepared by 1:3 serial dilution in DMSO from a specified starting concentration (e.g., 20 μM, 2 μM or 0.2 μM) and then added to wells of the assay plate in a total volume of 150 nL DMSO. The cells were further incubated at 37° C. and 5% CO2 for 7 days. Cell viability was assessed by adding 40 μL of Cell Titer-Glo® 3D reagent (Cat. No.: G9683, Promega) to each well and reading luminescence after mixing and incubation of the samples. The IC50 value of each test compound was calculated with XLFit curve fitting software.

The subject of assay [12] is Phosphorylation of ERK in NCI-H358 cells. In words: pERK assay, Method II (homogeneous TR-FRET, phospho-ERK Thr202/Tyr204). Format: cell-based. Conditions: Homo sapiens, 4 hr compound treatment. As to the method:
Method II. Phosphorylation of ERK was assessed by a homogeneous TR-FRET assay (Advanced phospho-ERK (Thr202/Tyr204) cellular kit; Cat. #64AERPEH, Cisbio). In brief, NCI-H358 cells were seeded in a 384-well culture plate at a density of 6000 cells in 40 μL medium/well and grown overnight at 37° C. and 5% CO2. Each test compound was dosed in duplicate in a 10-dose 3-fold titration starting at 10 μM or 2 μM. The culture plate was then incubated for 4 hr in the incubator. At the end of the compound treatment, the medium was removed, 35 μL of lysis buffer was added to each well, and the plate was agitated on a plate shaker for 40 mins at 4° C. An antibody cocktail of phospho-ERK1/2 Eu Cryptate antibody and Phospho-ERK1/2 d2 antibody was prepared by separately diluting the antibodies 20-fold with detection buffer and then mixing them together. 3.4 μL of antibody cocktail was dispensed to each well of an empty 384-well white ProxiPlus assay plate (Perkin Elmer), and the plate briefly centrifuged. 13.6 μL of cell lysate was then added to the antibody-containing wells, and the plate was briefly centrifuged and then incubated 2 hr at room temperature. The plate was read on a fluorescence plate reader (Envision2104, Perkin Elmer), with an excitation wavelength of 337 nm and emission wavelengths of 615 nm and 665 nm. The IC50 value of each test compound was calculated with XLFit curve fitting software. Results are shown in Table 6. ‘+++’ indicates IC50 values ≤300 nM, ‘++’ indicates IC50 values between 300 nM-3 μM, and ‘+’ indicates IC50 values ≥3 μM.

SMILES strings stand for the structures.

Take `C=CC(=O)N1CCN(c2c(C(=O)NC)c(=O)n(-c3c(C)ccnc3C(C)C)c3nc(-c4c(O)cccc4F)c(F)cc23)CC1` (single isomer, unassigned) [84 (Isomer B), 4-(4-acryloylpiperazin-1-yl)-6-fluoro-7-(2-fluoro-6-hydroxyphenyl)-1-(2-isopropyl-4-methylpyridin-3-yl)-N-methyl-2-oxo-1,2-dihydro-1,8-naphthyridine-3-carboxamide]: the IC50 is at least 3000 nM in assay [1]; at least 3000 nM in assay [2]; 300 to 3000 nM in assay [3]; at least 3000 nM in assay [4]; at most 300 nM in assay [5]; at least 3000 nM in [6]. Further, the half-inhibitory concentration (IC50) in [7] and in assay [8] was at least 3000 nM each time.

Take `C=CC(=O)N1CCC(n2c(=O)c(=O)n(-c3c(C)ccnc3C(C)C)c3nc(-c4c(O)cccc4F)c(F)cc32)CC1` (single isomer, unassigned) [1 (Isomer A), 1-(1-acryloylpiperidin-4-yl)-7-fluoro-6-(2-fluoro-6-hydroxyphenyl)-4-(2-isopropyl-4-methylpyridin-3-yl)-1,4-dihydropyrido[2,3-b]pyrazine-2,3-dione]: the half-inhibitory concentration (IC50) in assay [9] and in assay [10] was 300 to 3000 nM each time.

For `C=CC(=O)N1CCN(c2c(C(=O)NCC)c(=O)n(-c3c(C)ccnc3C(C)C)c3nc(-c4c(O)cccc4F)c(F)cc23)CC1` (single isomer, unassigned) [293 (Isomer A), 4-(4-acryloylpiperazin-1-yl)-N-ethyl-6-fluoro-7-(2-fluoro-6-hydroxyphenyl)-1-(2-isopropyl-4-methylpyridin-3-yl)-2-oxo-1,2-dihydro-1,8-naphthyridine-3-carboxamide], the IC50 was at most 300 nM in assay [10], 300 to 3000 nM in assay [3], at most 100 nM in [11] and 300 to 3000 nM in assay [12].

As to `C=CC(=O)N1CCN(c2c(C(=O)NC)c(=O)n(-c3c(C)ccnc3C(C)C)c3nc(-c4cccc5sc(N)nc45)c(F)cc23)CC1` (single isomer, unassigned) [254 (Isomer A), 4-(4-acryloylpiperazin-1-yl)-7-(2-aminobenzo[d]thiazol-4-yl)-6-fluoro-1-(2-isopropyl-4-methylpyridin-3-yl)-N-methyl-2-oxo-1,2-dihydro-1,8-naphthyridine-3-carboxamide], the 50% inhibitory concentration (IC50) in [10] is 300 to 3000 nM; in assay [3], at least 3000 nM.

As for `C=CC(=O)N1CCN(c2c(S(C)(=O)=O)c(=O)n(-c3c(C)ccnc3C(C)C)c3c(F)c(-c4c(C)ccc5[nH]ncc45)c(Cl)cc23)CC1` (single isomer, unassigned) [187 (Isomer C), 4-(4-acryloylpiperazin-1-yl)-6-chloro-8-fluoro-1-(2-isopropyl-4-methylpyridin-3-yl)-7-(5-methyl-1H-indazol-4-yl)-3-(methylsulfonyl)quinolin-2(1H)-one], the figures for the IC50 in assay [10], in assay [3] and in assay [11] were at most 300 nM, 300 to 3000 nM and at most 100 nM, respectively.

Regarding `C=CC(=O)N1CCN(c2c(S(C)(=O)=O)c(=O)n(-c3c(C)ccnc3C(C)C)c3nc(-c4c(C)ccc5[nH]ncc45)c(F)cc23)CC1` (single isomer, unassigned) [124 (Isomer A), 4-(4-acryloylpiperazin-1-yl)-6-fluoro-1-(2-isopropyl-4-methylpyridin-3-yl)-7-(5-methyl-1H-indazol-4-yl)-3-(methylsulfonyl)-1,8-naphthyridin-2(1H)-one], the IC50 in assay [10] is at most 300 nM; in assay [3], 300 to 3000 nM; in assay [12], 300 to 3000 nM.

As for `C=CC(=O)N1CCN(c2c(S(C)(=O)=O)c(=O)n(-c3c(C)ccnc3C(C)C)c3nc(-c4cccc5sc(N)nc45)c(F)cc23)CC1` (single isomer, unassigned) [250 (Isomer A), 4-(4-acryloylpiperazin-1-yl)-7-(2-aminobenzo[d]thiazol-4-yl)-6-fluoro-1-(2-isopropyl-4-methylpyridin-3-yl)-3-(methylsulfonyl)-1,8-naphthyridin-2(1H)-one], the figures for the half-maximal inhibitory concentration (IC50) in assay [10], in [3] and in assay [12] were at most 300 nM, 300 to 3000 nM and at most 300 nM, respectively.

Take `C=CC(=O)N1CCC(n2c(=O)c(=O)n(-c3c(C)ccnc3C(C)C)c3nc(-c4c(O)cccc4F)c(F)cc32)CC1` (single isomer, unassigned) [1 (Isomer B), 1-(1-acryloylpiperidin-4-yl)-7-fluoro-6-(2-fluoro-6-hydroxyphenyl)-4-(2-isopropyl-4-methylpyridin-3-yl)-1,4-dihydropyrido[2,3-b]pyrazine-2,3-dione]: the IC50 in assay [9] was at least 3000 nM.

As usually defined, the IC50 is the concentration at which inhibition is half-maximal.

The values are drawn from US20230026856A1, “HETEROCYCLIC COMPOUNDS AND METHODS OF USE THEREOF” (SPARCBIO LLC, priority 2020, published 2023).
